{
  "source": "patent US20150273070A1",
  "about": "“MODIFIED RELEASE OF 4-METHYL-3-[[4-(3-PYRIDINYL)-2-PYRIMIDINYL]AMINO]-N-[5-(4-METHYL-1H-IMIDAZOL-1-YL)-3-(TRIFLOUOROMETHYL)PHENYL] BENZAMIDE SOLUBILIZED USING ORGANIC ACIDS” (Novartis AG, priority 2011, published 2015)",
  "key": {"[1]": {"experiment": "Solubility of nilotinib in ethanol with citric acid", "format": "physicochemical"}, "[2]": {"experiment": "Solubility of nilotinib in lactic acid", "format": "physicochemical", "excerpt": "Nilotinib solubilized modified release solid dosage forms containing lactic acid were developed. […] Surfactants and/or polymers were used to prevent the precipitation after solubilized nilotinib is released from the formulation matrix. Due to the liquid nature of lactic acid this formulation matrix is in the liquid form. However, by incorporation of additional suitable excipients, the formulation could be solidified at room temperature. This improved the physical and chemical stability of nilotinib in the formulation. In addition, the solid state also provided the opportunity to modulate the drug release rate."}},
  "data": [
    {"smiles": "Cc1cn(-c2cc(NC(=O)c3ccc(C)c(Nc4nccc(-c5cccnc5)n4)c3)cc(C(F)(F)F)c2)cn1", "note": "[nilotinib, 4-Methyl-3-[[4-(3-pyrldinyl)-2-pyrimidinyl]amino]-N-[5-(4-methyl-1H-imidazol-1-yl)-3-(trifluoromethyl)phenyl] benzamide]", "values": [
      {"measurement": "solubility of the drug in ethanol", "setting": "[1]", "value": "remarkably high solubility"},
      {"measurement": "solubility at intestinal pH", "setting": "[2]; in presence of surfactants and/or polymers", "value": "could maintain its solubility at intestinal pH"},
      {"measurement": "solubility", "setting": "[2]; lactic acid, organic solvent or mixture, at 65° C.", "value": "> 600", "unit": "mg/mL"}
    ]}
  ]
}
